Source: patent publication US20090018111A1, “Novel Antimicrobial Medicament” (priority 2004, published 2009)
Where two headings read alike, the source gives them in different places.

What was measured:
Experiment in all cases: Sensitivity test (agar dilution)
Str. pyogenes Cook = type: cell-based, Streptococcus pyogenes; details: Streptococcus pyogenes
Protocol: (§1) The antibacterial activities were tested against various 18 bacteria (27 standard strains) which are representative bacteria caused clinically infectious disease (Staphylococcus aureus 3 strains, Staphylococcus epidermidis 1 strain, Micrococcus luteus 1 strain, Streptococcus pyogenes 1 strain, Enterococcus faecalis 1 strain, Enterococcus faecium 1 strain, Bacillus subtilis 1 strain, Escherichia coli 3 strains, Klebsiella pneumoniae 1 strain, Proteus mirabilis 1 strain, Proteus vulgaris 2 strains, Pseudomonas aeruginosa 3 strains, Serratia marcescens 2 strains, Enterobacter aerogenes 1 strain, Stenotrophomonas maltophilia 1 strain, Enterobacter cloacae 1 strain, Citrobacter freundii 1 strain, Moraxella catarrhalis 2 strains).
(§2) According to the standard method of Japan Chemotherapeutic Society (Chemotherapy, vol. […], p 76-79 (1981)) the test was carried out using the agar dilution method. After dissolving test samples in distilled water, agar medium containing the test samples was prepared in such a manner that the final concentration became twice serial dilution by pouring serially diluted combination drug solution or a single drug solution into agar medium. As agar medium was used Mueller Hinton Agar medium (MHA). Then, each strain was cultivated over night at 37° C. in an incubator and suspended in buffered saline solution with gelatin (BSG) in the concentration of about 10^6 CFU/ml. The suspension (about 5 μl) containing test strains was inoculated to the medium containing the test samples by Micro Planter.
(§3) When the sample is subjected to sensitivity test, this mixed solution was diluted by twice serial dilution method.
(§4) Furthermore, when the drug is solely used, each test sample was used as it is, and diluted by twice serial dilution method from the maximum concentration to the minimum concentration.
(§5) FIC index based on MIC value was calculated. […] Namely, when FIC index calculated by the following formula is equal or less than 1, the enhanced effect of the combination drug in said ratio is considered as positive. When FIC index is over 1, the enhanced effect of the combination drug in said ratio is considered as negative.
(§6) Formula of FIC index: FIC index=(MIC of Drug A in combination/MIC of Drug A alone)+(MIC of Drug B in combination/MIC of Drug B alone) N.C. in tables means being not calculated.

K. pneumoniae ATCC10031 = type: cell-based, Klebsiella pneumoniae; details: Klebsiella pneumoniae
Protocol: as §1, §2, §3, §4, §5, §6

E. cloacae GN7471 = type: cell-based, Enterobacter cloacae; details: Enterobacter cloacae
Protocol: as §1, §2, §3, §4, §5, §6

M. luteus ATCC9341 = type: cell-based, Micrococcus luteus; details: Micrococcus luteus
Protocol: as §1, §2, §3, §4, §5, §6

Work on `C[C@H]1C=C(c2csc(SC3=C(C(=O)O)N4C(=O)[C@H]([C@@H](C)O)[C@H]4[C@H]3C)n2)CN1` [SM, (4R,5S,6S)-6-[(1R)-1-Hydroxyethyl]-4-methyl-3-({4-[(5S)-5-methyl-2,5-dihydro-1H-pyrrol-3-yl]-1,3-thiazol-2-yl}sulfanyl)-7-oxo-1-azabicyclo[3.2.0]hept-2-ene-2-carboxylic acid] yielded an MIC (Str. pyogenes Cook; Concomitant (AZT:SM = 1:1), Str. pyogenes Cook, read-out: MIC concomitant) of 0.004 µg/mL, an MIC (Str. pyogenes Cook; Concomitant (BIPM:SM = 1:1), Str. pyogenes Cook, read-out: MIC concomitant) of 0.004 µg/mL and an MIC (Str. pyogenes Cook; Concomitant (CAZ:SM = 1:1), Str. pyogenes Cook, read-out: MIC concomitant) of 0.004 µg/mL. It also gave an MIC (Str. pyogenes Cook; Concomitant (CPFX:SM = 1:1), Str. pyogenes Cook, read-out: MIC concomitant) of 0.004 µg/mL, an MIC (Str. pyogenes Cook; Concomitant (DRPM:SM = 1:1), Str. pyogenes Cook, read-out: MIC concomitant) of no more than 0.002 µg/mL and an MIC (Str. pyogenes Cook; Concomitant (IPM:SM = 1:1), read-out: MIC) of no more than 0.002 µg/mL. It also gave an MIC (Str. pyogenes Cook; Concomitant (MEPM:SM = 1:1), read-out: MIC) of no more than 0.016 µg/mL, an MIC (Str. pyogenes Cook; Concomitant (MEPM:SM = 1:2), read-out: MIC) of no more than 0.031 µg/mL and an MIC (Str. pyogenes Cook; Concomitant (MEPM:SM = 1:4), read-out: MIC) of no more than 0.063 µg/mL. The MIC (Str. pyogenes Cook; Concomitant (PAPM:SM = 1:1), Str. pyogenes Cook, read-out: MIC concomitant) was no more than 0.002 µg/mL, the MIC (Str. pyogenes Cook; Concomitant (PIPC:SM = 1:1), Str. pyogenes Cook, read-out: MIC concomitant) was no more than 0.002 µg/mL and the MIC (Str. pyogenes Cook; Concomitant drug (MEPM:SM = 2:1), read-out: MIC) was no more than 0.008 µg/mL. It also gave an MIC (Str. pyogenes Cook; alone, read-out: MIC) of no more than 0.008 µg/mL, an MIC (Str. pyogenes Cook; drug alone, Str. pyogenes Cook, read-out: MIC alone) of 0.004 µg/mL and an MIC (K. pneumoniae ATCC10031; ATCC10031, Concomitant (AZT:SM = 1:1), K. pneumoniae ATCC10031, read-out: MIC concomitant) of 0.004 µg/mL. The MIC (K. pneumoniae ATCC10031; ATCC10031, Concomitant (BIPM:SM = 1:1), K. pneumoniae ATCC10031, read-out: MIC concomitant) was 0.016 µg/mL, the MIC (K. pneumoniae ATCC10031; ATCC10031, Concomitant (CAZ:SM = 1:1), K. pneumoniae ATCC10031, read-out: MIC concomitant) was 0.008 µg/mL and the MIC (K. pneumoniae ATCC10031; ATCC10031, Concomitant (CPFX:SM = 1:1), K. pneumoniae ATCC10031, read-out: MIC concomitant) was no more than 0.002 µg/mL. For the same compound, the MIC (K. pneumoniae ATCC10031; ATCC10031, Concomitant (DRPM:SM = 1:1), K. pneumoniae ATCC10031, read-out: MIC concomitant) was 0.008 µg/mL, the MIC (K. pneumoniae ATCC10031; ATCC10031, Concomitant (IPM:SM = 1:1), read-out: MIC) was 0.031 µg/mL and the MIC (K. pneumoniae ATCC10031; ATCC10031, Concomitant (MEPM:SM = 1:1), read-out: MIC) was no more than 0.016 µg/mL. The MIC (K. pneumoniae ATCC10031; ATCC10031, Concomitant (MEPM:SM = 1:2), read-out: MIC) was no more than 0.031 µg/mL, the MIC (K. pneumoniae ATCC10031; ATCC10031, Concomitant (MEPM:SM = 1:4), read-out: MIC) was no more than 0.063 µg/mL and the MIC (K. pneumoniae ATCC10031; ATCC10031, Concomitant (PAPM:SM = 1:1), K. pneumoniae ATCC10031, read-out: MIC concomitant) was 0.016 µg/mL. For the same compound, the MIC (K. pneumoniae ATCC10031; ATCC10031, Concomitant (PIPC:SM = 1:1), K. pneumoniae ATCC10031, read-out: MIC concomitant) was 0.016 µg/mL, the MIC (K. pneumoniae ATCC10031; ATCC10031, Concomitant drug (MEPM:SM = 2:1), read-out: MIC) was no more than 0.008 µg/mL and the MIC (E. cloacae GN7471; GN7471, Concomitant (AZT:SM = 1:1), E. cloacae GN7471, read-out: MIC concomitant) was 4 µg/mL. For the same compound, the MIC (E. cloacae GN7471; GN7471, Concomitant (BIPM:SM = 1:1), E. cloacae GN7471, read-out: MIC concomitant) was 0.063 µg/mL, the MIC (E. cloacae GN7471; GN7471, Concomitant (CAZ:SM = 1:1), E. cloacae GN7471, read-out: MIC concomitant) was 8 µg/mL and the MIC (E. cloacae GN7471; GN7471, Concomitant (CPFX:SM = 1:1), E. cloacae GN7471, read-out: MIC concomitant) was 0.016 µg/mL. It also gave an MIC (E. cloacae GN7471; GN7471, Concomitant (DRPM:SM = 1:1), E. cloacae GN7471, read-out: MIC concomitant) of 0.031 µg/mL, an MIC (E. cloacae GN7471; GN7471, Concomitant (IPM:SM = 1:1), read-out: MIC) of 0.125 µg/mL and an MIC (E. cloacae GN7471; GN7471, Concomitant (MEPM:SM = 1:1), read-out: MIC) of 0.031 µg/mL. For the same compound, the MIC (E. cloacae GN7471; GN7471, Concomitant (MEPM:SM = 1:2), read-out: MIC) was 0.063 µg/mL, the MIC (E. cloacae GN7471; GN7471, Concomitant (MEPM:SM = 1:4), read-out: MIC) was 0.125 µg/mL and the MIC (E. cloacae GN7471; GN7471, Concomitant (PAPM:SM = 1:1), E. cloacae GN7471, read-out: MIC concomitant) was 0.125 µg/mL. The MIC (E. cloacae GN7471; GN7471, Concomitant (PIPC:SM = 1:1), E. cloacae GN7471, read-out: MIC concomitant) was 8 µg/mL, the MIC (E. cloacae GN7471; GN7471, Concomitant drug (MEPM:SM = 2:1), read-out: MIC) was 0.016 µg/mL and the MIC (E. cloacae GN7471; GN7471, alone, read-out: MIC) was 8 µg/mL. The MIC (E. cloacae GN7471; GN7471, drug alone, E. cloacae GN7471, read-out: MIC alone) was 8 µg/mL, the MIC (M. luteus ATCC9341; ATCC9341, Concomitant (AZT:SM = 1:1), M. luteus ATCC9341, read-out: MIC concomitant) was no more than 0.002 µg/mL and the MIC (M. luteus ATCC9341; ATCC9341, Concomitant (BIPM:SM = 1:1), M. luteus ATCC9341, read-out: MIC concomitant) was 0.004 µg/mL. For the same compound, the MIC (M. luteus ATCC9341; ATCC9341, Concomitant (CAZ:SM = 1:1), M. luteus ATCC9341, read-out: MIC concomitant) was no more than 0.002 µg/mL, the MIC (M. luteus ATCC9341; ATCC9341, Concomitant (CPFX:SM = 1:1), M. luteus ATCC9341, read-out: MIC concomitant) was 0.004 µg/mL and the MIC (M. luteus ATCC9341; ATCC9341, Concomitant (DRPM:SM = 1:1), M. luteus ATCC9341, read-out: MIC concomitant) was no more than 0.002 µg/mL. It also gave an MIC (M. luteus ATCC9341; ATCC9341, Concomitant (IPM:SM = 1:1), read-out: MIC) of 0.004 µg/mL.
